Measurements reported in the NIST ThermoML archive (doi:10.1016/j.tca.2017.12.010).
± gives the expanded uncertainty stated by the source. Values belong to the compound of their own block, whether it stands above or below them.

How the values were obtained:
[1] = Liquid, DSC
[2] = Boiling temperature at pressure P; details: Liquid, DSC

SMILES: C1CCCCC1 [cyclohexane]
vapor or sublimation pressure ([1]; 353.82 K): 101.3 ± 7.9 kPa

SMILES: Cc1ccccc1 [toluene]
vapor or sublimation pressure ([1]; 383.6 K): 101.3 ± 7.9 kPa

SMILES: O [water]
Boiling temperature at pressure P ([2]; 92.9 kPa): 97.82 ± 1.6 °C
Boiling temperature at pressure P ([2]; 93 kPa): 97.84 ± 1.6 °C
Boiling temperature at pressure P ([2]; 93.5 kPa): 97.94 ± 1.6 °C
Boiling temperature at pressure P ([2]; 94.1 kPa): 98.06 ± 1.6 °C
Boiling temperature at pressure P ([2]; 101.3 kPa): 100.01 ± 1.6 °C
Boiling temperature at pressure P ([2]; 395 kPa): 143.21 ± 1.6 °C
Boiling temperature at pressure P ([2]; 585 kPa): 157.83 ± 1.6 °C
Boiling temperature at pressure P ([2]; 592 kPa): 158.51 ± 1.6 °C
Boiling temperature at pressure P ([2]; 791 kPa): 169.38 ± 1.6 °C
Boiling temperature at pressure P ([2]; 1091 kPa): 183.29 ± 1.6 °C
Boiling temperature at pressure P ([2]; 1392 kPa): 194.26 ± 1.6 °C
Boiling temperature at pressure P ([2]; 1689 kPa): 203.20 ± 1.6 °C
Boiling temperature at pressure P ([2]; 2088 kPa): 213.26 ± 1.6 °C

The remaining lines, values ahead:

vapor or sublimation pressure ([1]; 337.78 K): 101.3 ± 7.9 kPa
SMILES: CO [methanol]

vapor or sublimation pressure ([1]; 355.71 K): 101.3 ± 7.9 kPa
SMILES: CC(C)O [propan-2-ol]
